Source: US20110207609A1, “Piperazine Compounds With Herbicidal Effect” (BASF SE, priority 2008, published 2011)

How the values were obtained:
MATIN [1] = experiment: greenhouse test, pre-emergence treatment; assay type: in vivo, Matricaria inodora; conditions: 2.0 kg/ha, scale 0 to 100
Source text: (§1) The culture containers used were plastic flowerpots containing loamy sand with approximately 5.8% of humus as the substrate. The seeds of the test plants were sown separately for each species.
(§2) For the pre-emergence treatment, the active compounds, which had been suspended or emulsified in water, were applied directly after sowing by means of finely distributing nozzles. The containers were irrigated gently to promote germination and growth and subsequently covered with transparent plastic hoods until the plants had rooted. This cover caused uniform germination of the test plants, unless this has been impaired by the active compounds.
(§3) Depending on the species, the plants were kept at 10-25° C. or 20-35° C. The test period extended over 1 to 4 weeks. During this time, the plants were tended, and their response to the individual treatments was evaluated.
(§4) Evaluation was carried out using a scale from 0 to 100. 100 means no emergence of the plants, or complete destruction of at least the aerial moieties, and 0 means no damage, or normal course of growth. A good herbicidal activity is given at values of at least 70 and a very good herbicidal activity is given at values of at least 85.

MATIN [2] = experiment: greenhouse test, post-emergence treatment; assay type: in vivo, Matricaria inodora; conditions: 2.0 kg/ha, scale 0 to 100
Source text: as §1
(§5) For the post-emergence treatment, the test plants were first grown to a height of 1.5 to 15 cm, depending on the plant habit, and then treated with the active compounds which had been suspended or emulsified in water. For this purpose, the test plants were either sown directly and grown in the same containers, or they were first grown separately as seedlings and transplanted into the test containers a few days prior to treatment.
as §3, §4

AGSST = experiment: greenhouse test, post-emergence treatment; assay type: in vivo, Agrostis alba; conditions: 2.0 kg/ha, scale 0 to 100
Source text: as §1, §5, §3, §4

SETVI = experiment: greenhouse test, pre-emergence treatment; assay type: in vivo, Setaria viridis; conditions: 1.0 kg/ha, scale 0 to 100
Source text: as §1, §2, §3, §4

CHEAL = experiment: greenhouse test, post-emergence treatment; assay type: in vivo, Chenopodium album; conditions: 1.0 kg/ha, scale 0 to 100
Source text: as §1, §5, §3, §4

ECHCG = experiment: greenhouse test, post-emergence treatment; assay type: in vivo, Echinochloa crus-galli; conditions: 1.0 kg/ha, scale 0 to 100
Source text: as §1, §5, §3, §4

AMARE = experiment: greenhouse test, post-emergence treatment; assay type: in vivo, Amaranthus retroflexus; conditions: 0.5 kg/ha, scale 0 to 100
Source text: as §1, §5, §3, §4

GALAP = experiment: greenhouse test, post-emergence treatment; assay type: in vivo, Galium aparine; conditions: 0.5 kg/ha, scale 0 to 100
Source text: as §1, §5, §3, §4

SETFA = experiment: greenhouse test, pre-emergence treatment; assay type: in vivo, Setaria faberi; conditions: comparative experiment, 0.5 kg/ha
Description: as §1
(§6) The containers were irrigated gently to promote germination and growth and subsequently covered with transparent plastic hoods until the plants had rooted.
as §3, §4

APESV = experiment: greenhouse test, pre-emergence treatment; assay type: in vivo, Apera spica-venti
Description: as §1, §6, §3, §4

[3] = comparative experiment, 0.5 kg/ha

**Q.** What does the source list for `CN1C(=O)C(C)(Cc2ccccc2)N(C)C(=O)C1=Cc1occc1Br` (racemic) [I-11]?
**A.** herbicidal activity (MATIN [1]): very good (a very good herbicidal activity is given at values of at least 85); herbicidal activity (MATIN [2]): very good (a very good herbicidal activity is given at values of at least 85); herbicidal activity (AGSST): very good (a very good herbicidal activity is given at values of at least 85)

**Q.** Which results are given for `Cc1nn(C)c(Cl)c1C=C1C(=O)N(C)C(C)(Cc2ccccc2)C(=O)N1C` (racemic) [I-15]?
**A.** herbicidal activity (SETVI): very good (a very good herbicidal activity is given at values of at least 85); herbicidal activity (CHEAL): very good (a very good herbicidal activity is given at values of at least 85)

**Q.** How did the herbicidal activity (ECHCG) turn out when `CN1C(=O)C(=Cc2cn(C)c3cccc([N+](=O)[O-])c23)NC(=O)C1(C)Cc1ccccc1` (racemic) [I-18] was run?
**A.** good (A good herbicidal activity is given at values of at least 70)

**Q.** How did the herbicidal activity (AMARE) turn out when `Cc1ncn(C)c1C=C1C(=O)N(C)C(C)(Cc2ccccc2)C(=O)N1C` (racemic) [I-38] was run?
**A.** good (A good herbicidal activity is given at values of at least 70)

**Q.** And the herbicidal activity (GALAP)?
**A.** very good (a very good herbicidal activity is given at values of at least 85)

**Q.** With `CN1C(=O)C(C)(Cc2ccccc2)N(C)C(=O)C1=Cc1cc(Cl)sc1Cl` (racemic) [I-56] as the compound, how does the herbicidal activity (SETFA) read?
**A.** 80%

**Q.** What about the herbicidal activity (APESV; [3]) of the same compound?
**A.** 80%

**Q.** With `CN1C(=O)C(C)(Cc2ccccc2)N(C)C(=O)C1=Cc1cnn2cccnc12` (racemic) [I-61] as the compound, how does the herbicidal activity (APESV; 1.0 kg/ha, scale 0 to 100) read?
**A.** good (A good herbicidal activity is given at values of at least 70)

**Q.** With `CN1C(=O)C(Cc2cscc2C(F)(F)F)N(C)C(=O)C1Cc1ccccc1` (centres unmarked) [Ex. I.236.1, reference compound] as the compound, how does the herbicidal activity (APESV; [3]) read?
**A.** 20%

**Q.** `CN1C(=O)C(C)(Cc2ccccc2)N(C)C(=O)C1Cc1cscc1C(F)(F)F` (centres unmarked) [II-21] was tested. Which herbicidal activity (SETFA) did it give?
**A.** 95%

**Q.** What about the herbicidal activity (APESV; [3]) of the same compound?
**A.** 98%
